Experimental data taken from patent publication US20260364185A1, “Estrogen Receptor Modulator and Use Thereof” (JIANGSU VCARE PHARMATECH CO., LTD., priority 2023, published 2026).

The compounds below were run on MCF7 cells (assay: MCF7 cell activity test (CCK8 proliferation inhibition)). Conditions: Homo sapiens, MCF7, 144 h, 6 days incubation.
Format: cell-based
Experimental: Experimental Example 1: MCF7 cell activity test
Cell culture: MCF7 cells (culture conditions: MEM medium+20% FBS+1% essential amino acids++1 mg/100 ml insulin, 37° C., 5% CO2). Plating: The cells subcultured into the logarithmic growth phase were collected and transferred into a centrifuge tube, and centrifuged at 800 rpm for 5 min. The cells were resuspended in complete medium and counted. The cells were diluted and adjusted to a final concentration of 30,000 cells/mL. The cells were then seeded into a 96-well plate with 100 μL per well and incubated in an incubator overnight. Administration: Each group of drug solutions was added into the 96-well plate, 100 μL per well, n=3 for each drug concentration. Meanwhile, negative wells (n=6) and blank wells (n=3) were set up. The 96-well plate was incubated in the incubator for further 6 days. CCK8 reagent was added to the 96-well plate, 20 μL per well, and then the plate was placed in the incubator for further 4 h. The absorbance of the solution was measured at a wavelength of 450 nm using an enzyme reader. The proliferation inhibition rate was calculated and the half inhibitory concentration IC50 value was calculated using Graphpad Prism 6.0 software.

IC50 [nM] | SMILES
< 100 | Cn1nc(N2CCC(=O)NC2=O)c2cc(F)c(C3CCN(C[C@H]4CCCC[C@@H]4CN4CCN(c5ccc([C@@H]6c7ccc(O)cc7CC[C@@H]6c6ccccc6)cc5)CC4)CC3(F)F)cc21 (stereo in doubt) [IV-12]
< 100 | O=C1CCC(NC(=O)c2ccc(C3CCN(C[C@@H]4CCCC[C@H]4CN4CCN(c5ccc([C@@H]6c7ccc(O)cc7CC[C@@H]6c6ccccc6)cc5)CC4)CC3)cc2F)C(=O)N1 (stereo partly drawn) [Compound I-67, N-(2,6-dioxopiperidin-3-yl)-2-fluoro-4-(1-(((1R,2R)-2-((4-(4-((1R,2S)-6-hydroxy-2-phenyl-1,2,3,4-tetrahydronaphthalen-1-yl)phenyl)piperazin-1-yl)methyl)cyclohexyl)methyl)piperidin-4-yl)benzamide]
< 25 | O=C1CCC(NC(=O)c2ccc(N3CCN(C[C@@H]4CCCC[C@H]4CN4CCN(c5ccc([C@@H]6c7ccc(O)cc7CC[C@@H]6c6ccccc6)cc5)CC4)CC3)cc2F)C(=O)N1 (stereo partly drawn) [Compound I-69]
< 100 | Cc1nc2cc(N3CCN(C[C@@H]4CCCC[C@H]4CN4CCN(c5ccc([C@@H]6c7ccc(O)cc7CC[C@@H]6c6ccccc6)cc5)CC4)CC3)ccc2n1C1CCC(=O)NC1=O (stereo partly drawn) [Compound V-1]
< 50 | O=C1CCC(n2cnc3cc(N4CCN(C[C@@H]5CCCC[C@H]5CN5CCN(c6ccc([C@@H]7c8ccc(O)cc8CC[C@@H]7c7ccccc7)cc6)CC5)CC4)c(F)cc32)C(=O)N1 (stereo partly drawn) [Compound V-2]
< 50 | O=C1CCC(n2cnc3cc(N4CCN(C[C@@H]5CCCC[C@H]5CN5CCN(c6ccc([C@@H]7c8ccc(O)cc8CC[C@@H]7c7ccccc7)cc6)CC5)CC4)ccc32)C(=O)N1 (stereo partly drawn) [Compound V-3]
< 100 | O=C1CCC(n2cnc3cc(C4CCN(C[C@@H]5CCCC[C@H]5CN5CCN(c6ccc([C@@H]7c8ccc(O)cc8CC[C@@H]7c7ccccc7)cc6)CC5)CC4)c(F)cc32)C(=O)N1 (stereo partly drawn) [Compound V-5]
< 100 | O=C1CCC(n2cnc3cc(C4CCN(C[C@@H]5CCCC[C@H]5CN5CCN(c6ccc([C@@H]7c8ccc(O)cc8CC[C@@H]7c7ccccc7)cc6)CC5)CC4)ccc32)C(=O)N1 (stereo partly drawn) [Compound V-7]
< 25 | O=C1CCC(NC(=O)c2ccc(N3CCN(C[C@@H]4CCCC[C@H]4CN4CCN(c5ccc([C@@H]6c7ccc(O)cc7CC[C@@H]6c6ccccc6)cc5)CC4)CC3)cn2)C(=O)N1 (stereo partly drawn) [III-1, N-(2,6-dioxopiperidin-3-yl)-5-(4-(((1R,2R)-2-((4-(4-((1R,2S)-6-hydroxy-2-phenyl-1,2,3,4-tetrahydronaphthalen-1-yl)phenyl)piperazin-1-yl)methyl)cyclohexyl)methyl)piperazin-1-yl)pyridinecarboxamide]
< 100 | O=C1CCC(NC(=O)c2ccc(N3CCN(C[C@H]4CCCC[C@@H]4CN4CCN(c5ccc([C@@H]6c7ccc(O)cc7CC[C@@H]6c6ccccc6)cc5)CC4)CC3)cn2)C(=O)N1 (stereo partly drawn) [III-2, N-(2,6-dioxopiperidin-3-yl)-5-(4-(((1S,2S)-2-((4-(4-((1R,2S)-6-hydroxy-2-phenyl-1,2,3,4-tetrahydronaphthalen-1-yl)phenyl)piperazin-1-yl)methyl)cyclohexyl)methyl)piperazin-1-yl)pyridinecarboxamide]
< 100 | O=C1CCC(NC(=O)c2ccc(C3CCN(C[C@@H]4CCCC[C@H]4CN4CCN(c5ccc([C@@H]6c7ccc(O)cc7CC[C@@H]6c6ccccc6)cc5)CC4)CC3)cn2)C(=O)N1 (stereo partly drawn) [III-3, N-(2,6-dioxopiperidin-3-yl)-5-(1-(((1R,2R)-2-((4-(4-((1R,2S)-6-hydroxy-2-phenyl-1,2,3,4-tetrahydronaphthalen-1-yl)phenyl)piperazin-1-yl)methyl)cyclohexyl)methyl)piperidin-4-yl)pyridinecarboxamide]
< 50 | Cn1nc(C2CCC(=O)NC2=O)c2cc(F)c(N3CCN(C[C@@H]4CCCC[C@H]4CN4CCN(c5ccc([C@@H]6c7ccc(O)cc7CC[C@@H]6c6ccccc6)cc5)CC4)CC3)cc21 (stereo partly drawn) [IV-1]
< 25 | Cn1nc(C2CCC(=O)NC2=O)c2ccc(N3CCN(C[C@@H]4CCCC[C@H]4CN4CCN(c5ccc([C@@H]6c7ccc(O)cc7CC[C@@H]6c6ccccc6)cc5)CC4)CC3)cc21 (stereo partly drawn) [IV-3, 3-(6-(4-(((1R,2R)-2-((4-(4-((1R,2S)-6-hydroxy-2-phenyl-1,2,3,4-tetrahydronaphthalen-1-yl)phenyl)piperazin-1-yl)methyl)cyclohexyl)methyl)piperazin-1-yl)-1-methyl-1H-indazol-3-yl)piperidine-2,6-dione]
< 100 | Cn1nc(C2CCC(=O)NC2=O)c2ccc(N3CCN(C[C@H]4CCCC[C@@H]4CN4CCN(c5ccc([C@@H]6c7ccc(O)cc7CC[C@@H]6c6ccccc6)cc5)CC4)CC3)cc21 (stereo partly drawn) [IV-4, 3-(6-(4-(((1S,2S)-2-((4-(4-((1R,2S)-6-hydroxy-2-phenyl-1,2,3,4-tetrahydronaphthalen-1-yl)phenyl)piperazin-1-yl)methyl)cyclohexyl)methyl)piperazin-1-yl)-1-methyl-1H-indazol-3-yl)piperidine-2,6-dione]
< 25 | Cn1nc(N2CCC(=O)NC2=O)c2cc(F)c(N3CCN(C[C@@H]4CCCC[C@H]4CN4CCN(c5ccc([C@@H]6c7ccc(O)cc7CC[C@@H]6c6ccccc6)cc5)CC4)CC3)cc21 [IV-5]
< 50 | Cn1nc(C2CCC(=O)NC2=O)c2cc(F)c(C3CCN(C[C@H]4CCCC[C@@H]4CN4CCN(c5ccc([C@@H]6c7ccc(O)cc7CC[C@@H]6c6ccccc6)cc5)CC4)CC3)cc21 (stereo partly drawn) [IV-10, 3-(5-fluoro-6-(1-(((1S,2S)-2-((4-(4-((1R,2S)-6-hydroxy-2-phenyl-1,2,3,4-tetrahydronaphthalen-1-yl)phenyl)piperazin-1-yl)methyl)cyclohexyl)methyl)piperidin-4-yl)-1-methyl-1H-indazol-3-yl)piperidin-2,6-dione]
< 50 | O=C1CCC(n2ncc3cc(N4CCN(C[C@@H]5CCCC[C@H]5CN5CCN(c6ccc([C@@H]7c8ccc(O)cc8CC[C@@H]7c7ccccc7)cc6)CC5)CC4)c(F)cc32)C(=O)N1 (stereo partly drawn) [VI-5]
< 100 | O=C1CCC(n2ncc3cc(N4CCN(C[C@@H]5CCCC[C@H]5CN5CCN(c6ccc([C@@H]7c8ccc(O)cc8CC[C@@H]7c7ccccc7)cc6)CC5)CC4)ccc32)C(=O)N1 (stereo partly drawn) [VI-6]
< 50 | Cc1nn(C2CCC(=O)NC2=O)c2ccc(C3CCN(C[C@@H]4CCCC[C@H]4CN4CCN(c5ccc([C@@H]6c7ccc(O)cc7CC[C@@H]6c6ccccc6)cc5)CC4)CC3)cc12 (stereo partly drawn) [VI-8]
< 100 | Cc1nn(C2CCC(=O)NC2=O)c2cc(F)c(C3CCN(C[C@@H]4CCCC[C@H]4CN4CCN(c5ccc([C@@H]6c7ccc(O)cc7CC[C@@H]6c6ccccc6)cc5)CC4)CC3)cc12 (stereo partly drawn) [VI-9]
< 25 | Cn1nc(N2CCC(=O)NC2=O)c2cc(F)c(C3CC4CCC(C3)N4C[C@@H]3CCCC[C@H]3CN3CCN(c4ccc([C@@H]5c6ccc(O)cc6CC[C@@H]5c5ccccc5)cc4)CC3)cc21 (stereo partly drawn) [VI-17]
< 25 | Cn1nc(N2CCC(=O)NC2=O)c2cc(F)c(C3CCN(C[C@@H]4CCCC[C@H]4CN4CCN(c5ccc([C@@H]6c7ccc(O)cc7CC[C@@H]6c6ccccc6)cc5)CC4)C4(CC4)C3)cc21 (stereo partly drawn) [VI-18]
< 50 | Cn1nc(N2CCC(=O)NC2=O)c2cc(F)c(C3CCN(C4CCN(C[C@@H]5CCCC[C@H]5CN5CCN(c6ccc([C@@H]7c8ccc(O)cc8CC[C@@H]7c7ccccc7)cc6)CC5)CC4)CC3)cc21 [VI-19]
< 25 | C[C@@H]1CC(c2cc3c(cc2F)c(N2CCC(=O)NC2=O)nn3C)CCN1C[C@@H]1CCCC[C@H]1CN1CCN(c2ccc([C@@H]3c4ccc(O)cc4CC[C@@H]3c3ccccc3)cc2)CC1 (stereo partly drawn) [VI-20]
